The record followed here is PMC6285983, “Novel broad spectrum virucidal molecules against enveloped viruses” (PLoS ONE, 2018).

The test system of one data set is HSV-1. Put plainly: HSV-1 plaquing efficiency assay. The format is cell-based.
Another data set has as its system HCMV. Briefly: HCMV inhibition assay on HELF cells. Particulars: Human betaherpesvirus 5, HELF. Type of data set: cell-based, HCMV strain Towne. As for the experimental part:
(§1) HELF cells were pre-plated in a 96-well plate. […] After five days incubation, cells were observed under an inverted Zeiss LSM510 fluorescence microscope (Zeiss, Oberkochen, Germany) and the percentages of infection were calculated by comparing GFP positive cells in treated and untreated wells.

A further data set relates to RSV. Put plainly: RSV inhibition assay on Hep-2 cells. The format is cell-based, RSV strain A2. To be noted: human respiratory syncytial virus. As for the experimental part: HeP-2 cells were pre-plated in a 96-well plate. […] 72 h later cells were fixed and subjected to specific immunostaining using an RSV monoclonal antibody (Ab35958; Abcam, Cambridge, United Kingdom) in order to visualize syncytia.

The next data set concerns VSV. Put plainly: microbe, parasite or virus in culture. Type of data set: cell-based. To be noted: Vesicular stomatitis virus.
The subject of another data set is HRoV. Put plainly: HRoV inhibition assay on MA104 cells. The format is cell-based, Human rotavirus strain Wa. As for the experimental part:
MA104 cell were plated in 96-well trays. The following day virus infectivity was activated by adding 5 μg porcine trypsin (Sigma)/mL for 30 min at 37°C. […] After 16 h, cells were fixed with cold acetone–methanol and viral titers were determined by indirect immunostaining using the monoclonal antibody mab-0036 (specific for human 41 kDa inner capsid protein–VP6 –of rotavirus) purchased from Covalab (Villeurbanne, France) and the UltraTech HRP Streptavidin-Biotin Detection System (Beckman Colter).

Data set [1] is described as follows: Cell viability MTS assay, conditions of the HCMV assay. The format is cell-based. To be noted: human, HELF cells. As for the experimental part:
(§2) Cell viability was measured using the MTS [3- (4,5-dimethylthiazol-2-yl)-5- (3 carboxy methoxy phenyl)-2-(4-sulfophenyl)-2H-tetrazolium] assay. Cell cultures were seeded in 96-well plates and were incubated with different concentrations of compounds in duplicate under the same experimental conditions described for the antiviral assays, (i.e. if the incubation time of the compound on cells was carried for 2 hours and then the evaluation of the antiviral activity was done 72h later, the same timing was used for the cytotoxicity assays, in order to exclude any toxicity effect in the antiviral evaluation). Cell viability was determined using the CellTiter 96 Proliferation Assay Kit (Promega, Madison, WI, USA) according to the manufacturer's instructions. Absorbances were measured using a Microplate Reader (Model 680, BIORAD) at 490 nm. The effect on cell viability at different concentrations of the compound was expressed as a percentage, by comparing absorbances of treated cells with those of cells incubated with culture medium and equal volumes of vehicle. […]
as §1
A general note: Tetrazolium dyes change colour on reduction, which living cells bring about.

A short description of data set [2]: Cell viability MTS assay, conditions of the RSV assay. The format is cell-based. Particulars: human, Hep-2 cells. As for the experimental part:
as §2, with “vehicle. The 50% cytotoxic concentrations (CC50) and 95% confidence intervals (CIs) were determined using Prism software (Graph-Pad Software, San Diego, CA). For compound 9d a continuous incubation of 1, 2, 3 and 4 days on Vero cells was carried in order to evaluate the toxicity after long exposure the results are shown in S1 Fig and Fig 3.” for “vehicle.”

Data set [3] in a line: Cell viability MTS assay, conditions of the IAV assay. The format is cell-based, Canine. Particulars: dog, MDCK cells. As to the method:
(§3) Cell viability was measured using the MTS [3- (4,5-dimethylthiazol-2-yl)-5- (3 carboxy methoxy phenyl)-2-(4-sulfophenyl)-2H-tetrazolium] assay. Cell cultures were seeded in 96-well plates and were incubated with different concentrations of compounds in duplicate under the same experimental conditions described for the antiviral assays, (i.e. if the incubation time of the compound on cells was carried for 2 hours and then the evaluation of the antiviral activity was done 72h later, the same timing was used for the cytotoxicity assays, in order to exclude any toxicity effect in the antiviral evaluation). Cell viability was determined using the CellTiter 96 Proliferation Assay Kit (Promega, Madison, WI, USA) according to the manufacturer's instructions. Absorbances were measured using a Microplate Reader (Model 680, BIORAD) at 490 nm. The effect on cell viability at different concentrations of the compound was expressed as a percentage, by comparing absorbances of treated cells with those of cells incubated with culture medium and equal volumes of vehicle. The 50% cytotoxic concentrations (CC50) and 95% confidence intervals (CIs) were determined using Prism software (Graph-Pad Software, San Diego, CA). For compound 9d a continuous incubation of 1, 2, 3 and 4 days on Vero cells was carried in order to evaluate the toxicity after long exposure the results are shown in S1 Fig and Fig 3.

Data set [4] can be described thus: Cell viability MTS assay, conditions of the HPV-16 and Ad5 assays. The format is cell-based. Particulars: human, HeLa cells; conditions of HPV-16 assay. As for the experimental part:
as §2
HeLa cells were plated in 96-well plates. […] The GFP-expressing infected cells were observed under an inverted Zeiss LSM510 fluorescence microscope (Zeiss, Oberkochen, Germany) and the percentages of infection were calculated by comparing GFP positive cells in treated and untreated wells.

Data set [5] is described as follows: Cell viability MTS assay, conditions of the HRoV assay. The format is cell-based. Particulars: African green monkey, MA104 cells. As for the experimental part: as §3, with “3. […]” for “3.”
A further data set concerns HSV-2. Put plainly: Binding assay (qPCR, immunostaining, IF). Type of data set: cell-based. To be noted: 10 μM, HSV-2 MOI 10, 2 h on Vero cells at 4°C. As to the method: Since the observed irreversible effect can be exerted at different stages of viral infection, we investigated more in detail if compound 9d produced a physical disruption of the virus, thus preventing its attachment to the cells or a successive irreversible modification. We performed entry and binding assays, evaluating the amount of bound virus through immunostaining or qPCR. […] On the contrary, when entry assays were performed, it was possible to observe a reduction in the amount of virus associated to the cells (Fig 7D). […]
Cells were plated on coverslips and the following day the binding or entry protocol described above was applied. […] Rhodamine conjugated anti-rabbit (Santa Cruz) was then added on cells for 1 h at 37°C following 3 washes coverslips were mounted on microscope glasses and observed with Zeiss LSM510 fluorescence microscope (Zeiss, Oberkochen, Germany) and images were acquired.
Cells subjected to binding assays were then lysed and subjected to total DNA/RNA extraction and subsequently subjected to qPCR using as primers 5’- […] -3’ and 5’-[…] -3’ and as probe 5’-FAM […] -TAMRA for 40 cycles at 94°C for 15” followed by 60°C for 60”. The results were normalized according to values of rnasep and the % of bound virus were measured comparing the Δct of treated wells to wells treated with equal volume of solvent.
(In general: Real-time PCR tracks product formation cycle by cycle.)

A further data set relates to IAV H1N1. Put plainly: IAV H1N1 inhibition assay on MDCK cells. Particulars: Influenza A virus.

Structures are written as SMILES. pEC50: −log10 of the molar value.

Experimental for IAV H1N1: MDCK cells were pre-plated in 96-well plates. The following day, increasing concentrations of compounds were mixed with IAV (MOI 0.05) and incubated for 1 h at 37°C. The mixtures were subsequently added to the cells for 1 h at 37°C, after a washout cells were overlaid with medium for 16 h at 37°C. Cells were then fixed and subjected to specific immunostaining using a Flu A monoclonal antibody (Merck 5001) in order to visualize infected cells. Percentages of infection were calculated by comparing numbers of infected cells in treated and untreated wells.

A word on the pEC50: it is −log10 of the EC50, conventionally taken in molar units. For orientation: EC90 means the concentration needed for an effect of 90%. In general, CC50 refers to the concentration at which the toxic effect on the cells reaches its halfway point. Higher therefore signals better tolerance by the cells. For `CC(C)c1ccc(CCN2C(=O)/C(=C/c3ccc(-c4ccc(C(=O)O)c(O)c4)o3)SC2=S)cc1` [Compound 9d, (Z)-2-hydroxy-4-(5-((3-(4-isopropylphenethyl)-4-oxo-2-thioxothiazolidin-5-ylidene)methyl)furan-2-yl)benzoic acid], the pEC50 was 8.66 in the data set on HSV-1 (Human alphaherpesvirus 1, read-out: EC50 (95% C.I.)); 8.37 in the data set with HCMV (read-out: EC50 (95% C.I.)); 7.26 with RSV (read-out: EC50 (95% C.I.)); 7.88 in the data set on VSV (read-out: EC50 (95% C.I.)); 7.18 in the data set with IAV H1N1 (read-out: EC50 (95% C.I.)). Also, the 90% effect concentration (EC90) is 35.1 nM in the data set on HSV-1 (Human alphaherpesvirus 1, read-out: EC90 (95% C.I.)); 31.3 nM in the data set with HCMV (read-out: EC90 (95% C.I.)); 221 nM in the data set on RSV (read-out: EC90 (95% C.I.)); 117 nM in the data set with VSV (read-out: EC90 (95% C.I.)); 301 nM in the data set on IAV H1N1 (read-out: EC90 (95% C.I.)). Also, the “antiviral activity against non-enveloped virus” value in the data set on HRoV is “inactive”. The CC50 at 3 h in data set [1] turned out to be 5.24 µM; in data set [2], 17 µM. Moreover, the results for the CC50 at 1 h in [3] and in data set [5] were 136 µM and 156 µM, respectively. In addition, in data set [4], the CC50 at 72 h was determined as 94.2 µM. In addition, in the data set on HSV-2, the viral binding capability result is “not altering viral binding capability”.
